Results: patent US11623014B2, “Mini-gastrin analogue, in particular for use in CCK2 receptor positive tumour diagnosis and/or treatment” (Paul Scherrer Institut, priority 2013, dated 2023)

Tests used:
[1] = Stability of 177Lu-labelled mini-gastrin analogues in human serum/plasma, metabolites by HPLC; type: in vitro ADME; details: human serum, radio-labelled with 177Lu, compared with PP-F11, PP-F10N and PP-F10
Experimental: 12 MBq of the radiolabelled compound was incubated in 2 mL fresh human plasma. A 40 μL probe was taken after 0, 1, 2, 18, 24, 48 and 72 h and added 200 μL (50% Methanol and 50% Acetonitril) in a Mini-UniPrep Filter. The solution is filtered after vortexing. 40 μL of the filtered solution is analyzed by HPLC.

[2] = system: human CCK-2 receptor transfected A431 cells; test: Biodistribution studies in CD1 nu/nu mice bearing CCK-2 receptor positive and mock A431 tumours; type: in vivo
Experimental: PP-F11N has been investigated according to the CD1 nu/nu mice model. […] FIG. 2 illustrates the biodistribution of PP-F11, PP-F11N and oxidized PP-F11 ox (oxidized PP-F11) after 4 hours in the athymic CD1 nu/nu mice model. Tumour positive: with human CCK-2 receptor transfected A431 cells on one side of the mouse; tumor negative: CCK-2 receptor negative A431 cells on the other side of the mouse. The effect of the higher tumor uptake by the exchange of methionine with norleucine is specifically apparent with compounds having the DGlu6 sequence, different from compounds having a sequence with DGLn6 which is referred to as PP-F10.
CD1 nu/nu mice were injected with 5×10^6 A431 cells. CCK-2 receptor positive A431 cells' were injected into one flank and mock cells on the other as an unspecific control. The tumors reach a weight of about 80 to 120 mg after about 10 days. 150-200 kBq (5 pmol) of the radiolabelled peptides were injected into the tail vein. Mice were killed by CO2 asphyxiation after defined time points post injection. The organs were dissected, weighted and the activity was measured. The % injected activity per gram (% i.A./g) was calculated. The animal experiments were approved by the local animal welfare committee and performed according to national regulations.

[3] = biodistribution after 4 hours, athymic CD1 nu/nu mice

CCCC[C@H](NC(=O)[C@H](Cc1c[nH]c2ccccc12)NC(=O)CNC(=O)[C@H](Cc1ccc(O)cc1)NC(=O)[C@H](C)NC(=O)[C@@H](CCC(=O)O)NC(=O)[C@@H](CCC(=O)O)NC(=O)[C@@H](CCC(=O)O)NC(=O)[C@@H](CCC(=O)O)NC(=O)[C@@H](CCC(=O)O)NC(=O)[C@@H](CCC(=O)O)NC(=O)CN1CCN(CC(=O)O)CCN(CC(=O)O)CCN(CC(=O)O)CC1)C(=O)N[C@@H](CC(=O)O)C(=O)N[C@@H](Cc1ccccc1)C(N)=O [PP-F11N]
pharmacologic stability [1]: highest pharmacologic stability of all probands
accumulation in the kidneys [2, 3]: very few
tumor-noise ratio [2, 3]: very favorable
tumor uptake ([2]; biodistribution after 4 hours, athymic CD1 nu/nu mice, CCK-2 receptor positive A431 tumour): significant higher
tumor-to-kidney ([2]; mouse, in vivo): best
